These are literature values, as cited in patent EP4537663A1, “INCLUSION COMPLEX COMPRISING TRYPTOPHAN AND ARGININE; FERTILISING, BIOSTIMULANT AND ANTIMICROBIAL COMPOSITION COMPRISING SAME; PRODUCTION METHOD THEREOF; AND USE THEREOF” (Universidad de Valladolid, priority 2022, dated 2023).

The conditions of this series: at 25°C.

Values after ≈ are worked out from the molar mass of the structure shown.

With `N[C@@H](Cc1c[nH]c2ccccc12)C(=O)O` [tryptophan], the solubility in water is about 11.4 mg/mL (≈ 55.8 mM).
